Like-named read-outs stand apart in the source and are kept apart here.
Columns and labels:
EPAC1 [1] = target: T1, EPAC1 (Homo sapiens (Human), UniProt O95398); experiment: biochemical
EPAC1 [2] = target: T1, EPAC1; settings: for IC50: read-out: Rap 1b-bGDP EPAC1 IC50
EPAC2 [3] = target: T2, EPAC2 (Mus musculus (Mouse), UniProt Q9EQZ6); experiment: biochemical; settings: Rap1b-bGDP EPAC2 IC50, apparent IC50, EPAC2 GEF activity, 20 μM cAMP
Method: (§3) In Vitro Evaluation of EPAC2 Inhibition.
(§4) In vitro EPAC GEF activity was acquired as previously described (Zhu et al., Sci. Rep. (2015) 5:9344). Briefly, the assay was performed using 500 nM Rap1b-BODIPY-GDP and 200 nM EPAC proteins in buffer containing 50 mM Tris-HCl pH 7.5, 50 mM NaCl, 5 mM MgCl2, 1 mM DTT, 50 mM GDP and the indicated concentrations of test compounds at room temperature using half-area 96-well plates (Corning Costar 3915). The exchange reaction was monitored using a Spectramax M2 Plate Reader (Molecular Devices) with the excitation/emission wavelengths set at 485/515 nm. The reaction rate constant (kobs) was determined by globally fitting the experimental data to a single exponential equation.

EPAC2 [4] = target: T2, EPAC2; settings: for Relative GEF activity, EPAC2-mediated Rap1b-bGDP exchange: in the presence of 20 μM cAMP, figure; for IC50: read-out: Rap1b-bGDP EPAC2 IC50, apparent IC50, EPAC2 GEF activity, 20 μM cAMP
Method: as §3, §4

R. australia [5] = settings: 10 mg/kg IP daily, lethal dose of R. australia
Method: WT C57BL/6 mice were treated with vehicle or ESI-09 (10 mg/kg, IP) daily. Five days after the treatment, mice were challenged with lethal dose of R. australia and continued ESI-09 daily treatment.

R. australia [6] = settings: HUVEC cells, vs vehicle
[7] = mice, single IP injection 10 mg/kg
Method: In vivo pharmacokinetic studies were performed in four week old female C57BL6/N mice.

EPAC1 [8] = target: T1, EPAC1; settings: read-out: IC50 in inhibiting EPAC1; reference compound, Zhu et al., Sci. Rep. (2015); cited from earlier work
[9] = test system: OVA-specific IgG1 antibodies; settings: mouse, in vivo
leptin = settings: wild-type mice, 50 mg/kg oral gavage for 3 weeks, relative to vehicle
Method: (§1) To explore the feasibility of increasing leptin sensitivity by targeting Epac1 using small molecules, organotypic brain slice cultures were prepared from 11-day old wild-type C57BL/6 mice. After 7 days ex vivo culture, treatment of the brain tissue with the Epac specific antagonist ESI-09 led to an enhanced pSTAT3 Y705 level both at the basal state and in response to leptin stimulation. […] These pharmacological data are in agreement with results obtained using Epac1 KO mice and further confirm that inhibition of Epac1 enhances leptin signaling in the hypothalamus. To further investigate the therapeutic potential of this small molecule, wild-type mice were with ESI-09 (50 mg/kg) or vehicle (corn oil) by oral gavage for 3 weeks.

pSTAT3 Y705 = settings: brain slices, basal state and in response to leptin stimulation
Method: as §1

EPAC1 [10] = target: T1, EPAC1; settings: at 100 μM
From the text: (§2) Given the physiological and pathophysiological significance of EPAC proteins, developing pharmacological EPAC modulators has attracted more and more attention. Most EPAC agonists are derivatives of cAMP, while non-cyclic nucleotide ligands usually display EPAC inhibitory activities. Cheng group developed a sensitive and robust fluorescence-based high throughput (HTS) assay, (Tsalkova et al., PloS one, (2012) 7:e30441) and discovered a series of non-cyclic nucleotide EPAC inhibitors (Tsalkova et al., Proc. Natl. Acad. Sci. U.S.A., (2012) 109:18613-18).

EPAC2 [11] = settings: read-out: IC50 against EPAC2
From the text: as §2

[12] = Rap 1b-bGDP EPAC1 IC50, apparent IC50, EPAC1 GEF activity, 20 μM cAMP
[13] = apparent IC50, EPAC1 GEF activity, 20 μM cAMP

Row | Compound | IC50 (EPAC1 [1]; Rap 1b-bGDP EPAC1 IC50) [µM] | IC50 (EPAC1 [1]; [12]) [µM] | IC50 (EPAC2 [3]) [µM] | further results
1 | CC(C)(C)c1ccc(-c2cc(C(=O)C(C#N)=NNc3cccc(Cl)c3)no2)cc1 [Compound 7, N-(3-Chlorophenyl)-2-(5-(4-(tert-butyl)phenyl)isoxazol-3-yl)-2-oxoacetohydrazonoyl cyanide] | 8.6 |  |  | 
2 | CC(C)(C)c1ccc(-c2cc(C(=O)C(C#N)=NNc3ccc(C(F)(F)F)c(Cl)c3)no2)cc1 [Compound 9, N-(3-Chloro-4-(trifluoromethyl)phenyl)-2-oxo-2-(5-(4-(tert-butyl)phenyl)isoxazol-3-yl)acetohydrazonoyl cyanide] |  | 9 ± 3.9 |  | 
3 | CC(C)(C)c1ccc(-c2cc(C(=O)C(C#N)=NNc3ccc(Cl)c(C(F)(F)F)c3)no2)cc1 [Compound 10, N-(4-Chloro-3-(trifluoromethyl)phenyl)-2-oxo-2-(5-(4-(tert-butyl)phenyl)isoxazol-3-yl)acetohydrazonoyl cyanide] |  | 7.3 | 2.2 ± 0.3 | Rap 1b-bGDP EPAC1 IC50 (EPAC1 [2]; [13]): low micromolar range; Relative GEF activity, EPAC2-mediated Rap1b-bGDP exchange (EPAC2 [4]): Dose-dependent inhibition
4 | CC(C)(C)c1ccc(-c2cc(C(=O)C(C#N)=NNc3cc(C(F)(F)F)cc(C(F)(F)F)c3)no2)cc1 [Compound 11, N-(3,5-Bis(trifluoromethyl)phenyl)-2-(5-(4-(tert-butyl)phenyl)isoxazol-3-yl)-2-oxoacetohydrazonoyl cyanide] |  | 11.9 ± 6 |  | 
5 | N#CC(=NNc1cc(Cl)cc(C(F)(F)F)c1)C(=O)c1cc(-c2ccccc2)on1 [Compound 13, N′-(3-Chloro-5-(trifluoromethyl)phenyl)-2-oxo-2-(5-phenylisoxazol-3 yl)acetohydrazonoyl cyanide] | 9.5 ± 1.2 |  |  | 
7 | N#CC(=NNc1cc(C(F)(F)F)cc(C(F)(F)F)c1)C(=O)c1cc(-c2ccccc2)on1 [Compound 15, N-(3,5-Bis(trifluoromethyl)phenyl)-2-oxo-2-(5-phenylisoxazol-3-yl)acetohydrazonoyl cyanide] | 7.2 ± 0.7 |  | 3.3 ± 0.8 | 
8 | N#CC(NNc1ccc(C(F)(F)F)c(Cl)c1)C(=O)c1cc(-c2ccccc2)on1 (stereo not shown) [Compound 17b] |  |  |  | Rap 1b-bGDP EPAC1 IC50 (EPAC1 [2]): low micromolar range; IC50 (EPAC1 [2]): 5.1 ± 0.3 µM
9 | N#CC(=NNc1ccc(Cl)c(C(F)(F)F)c1)C(=O)c1cc(-c2ccc(Cl)cc2)on1 [Compound 20, N-(4-Chloro-3-(trifluoromethyl)phenyl)-2-oxo-2-(5-(4-chlorophenyl)isoxazol-3-yl)acetohydrazonoyl cyanide] | 7.8 ± 2.1 |  |  | 
10 | COc1ccc(-c2cc(C(=O)C(C#N)=NNc3cccc(Cl)c3)no2)cc1 [Compound 22, N-(3-Chlorophenyl)-2-(5-(4-methoxyphenyl)isoxazol-3-yl)-2-oxoacetohydrazonoyl cyanide] | 11.4 ± 2.8 |  |  | Relative GEF activity, EPAC1-mediated Rap1b-bGDP exchange (EPAC1 [2]): Dose-dependent inhibition
11 | COc1ccc(-c2cc(C(=O)C(C#N)=NNc3ccc(Cl)c(C(F)(F)F)c3)no2)cc1 [Compound 23, N-(4-Chloro-3-(trifluoromethyl)phenyl)-2-oxo-2-(5-(4-methoxyphenyl)isoxazol-3-yl)acetohydrazonoyl cyanide] |  | < 8 | 4.5 ± 1 | 
12 | N#CC(=NNc1cc(Cl)cc(C(F)(F)F)c1)C(=O)c1cc(-c2ccco2)on1 [Compound 26, N-(3-Chloro-5-(trifluoromethyl)phenyl)-2-(5-(furan-2-yl)isoxazol-3-yl)-2-oxoacetohydrazonoyl cyanide] | 3.6 ± 0.2 |  | 2.2 ± 0.3 | Rap 1b-bGDP EPAC1 IC50 (EPAC1 [2]): low micromolar range; Relative GEF activity, EPAC1-mediated Rap1b-bGDP exchange (EPAC1 [2]): Dose-dependent inhibition
13 | N#CC(=NNc1ccc(Cl)c(C(F)(F)F)c1)C(=O)c1cc(-c2ccco2)on1 [Compound 27, N-(4-Chloro-3-(trifluoromethyl)phenyl)-2-(5-(furan-2-yl)isoxazol-3-yl)-2-oxoacetohydrazonoyl cyanide] |  | 4.2 ± 0.9 | 2.3 ± 0.2 | Relative GEF activity, EPAC2-mediated Rap1b-bGDP exchange (EPAC2 [4]): Dose-dependent inhibition
14 | N#CC(=NNc1cccc(Cl)c1)C(=O)c1noc2ccccc12 [Compound 30, 2-(Benzo[d]isoxazol-3-yl)-N-(3-chlorophenyl)-2-oxoacetohydrazonoyl cyanide] | 13.2 |  |  | 
15 | N#CC(=NNc1cc(Cl)cc(C(F)(F)F)c1)C(=O)c1noc2ccccc12 [Compound 31, 2-(Benzo[d]isoxazol-3-yl)-N-(3-chloro-5-(trifluoromethyl)phenyl)-2-oxoacetohydrazonoyl cyanide] |  | 4.6 ± 0.8 | 2.2 ± 0.2 | 
16 | N#CC(=NNc1ccc(C(F)(F)F)c(Cl)c1)C(=O)c1noc2ccccc12 [Compound 32, 2-(Benzo[d]isoxazol-3-yl)-N-(3-chloro-4-(trifluoromethyl)phenyl)-2-oxoacetohydrazonoyl cyanide] |  | 3 ± 0.3 | 2.2 ± 0.4 | Rap 1b-bGDP EPAC1 IC50 (EPAC1 [2]; [13]): low micromolar range
17 | N#CC(=NNc1ccc(Cl)c(C(F)(F)F)c1)C(=O)c1noc2ccccc12 [Compound 33, 2-(Benzo[d]isoxazol-3-yl)-N-(4-chloro-3-(trifluoromethyl)phenyl)-2-oxoacetohydrazonoyl cyanide] |  | 2.7 ± 0.3 | 1.9 | Rap 1b-bGDP EPAC1 IC50 (EPAC1 [2]; [13]): low micromolar range; Relative GEF activity, EPAC1-mediated Rap1b-bGDP exchange (EPAC1 [2]; in the presence of 20 μM cAMP, figure): Dose-dependent inhibition; Relative GEF activity, EPAC2-mediated Rap1b-bGDP exchange (EPAC2 [4]): Dose-dependent inhibition
18 | N#CC(=NNc1cc(F)cc(Cl)c1)C(=O)c1noc2ccccc12 [Compound 34, 2-(Benzo[d]isoxazol-3-yl)-N-(3-chloro-5-fluorophenyl)-2-oxoacetohydrazonoyl cyanide] | 18.9 ± 4.9 |  |  | 
19 | N#CC(=NNc1ccc(F)c(Cl)c1)C(=O)c1noc2ccccc12 [Compound 35, 2-(Benzo[d]isoxazol-3-yl)-N-(3-chloro-4-fluorophenyl)-2-oxoacetohydrazonoyl cyanide] | 8.5 ± 3.5 |  |  | 
20 | N#CC(=NNc1cc(C(F)(F)F)cc(C(F)(F)F)c1)C(=O)c1noc2ccccc12 [Compound 36, 2-(Benzo[d]isoxazol-3-yl)-N-(3,5-bis(trifluoromethyl)phenyl)-2-oxoacetohydrazonoyl cyanide] |  | 6.7 ± 0.7 |  | 
21 | CC(C)(C)c1cc(C(=O)/C(C#N)=N/Nc2cccc(Cl)c2)no1 [ESI-09] |  |  |  | Relative GEF activity, EPAC1-mediated Rap1b-bGDP exchange (EPAC1 [2]): Dose-dependent inhibition; IC50 (EPAC1 [2]): 10.8 ± 1.6 µM; share of treatment group showing sign of sickness (R. australia [5]): 10%; number of intracellular R. australia (R. australia [6]): dramatically reduced; half-life [7]: 3.5 h; maximal blood level [7]: 42,520 ng/ml; time of maximal blood level [7]: 0.5 h; IC50 (EPAC1 [8]): 10.8 µM; level of serum OVA-specific IgG1 antibodies [9]: significantly higher; fold more potent on EPAC2 inhibition than on EPAC1 (EPAC2 [4]; EPAC2 vs EPAC1): 2.5 fold; Relative GEF activity, EPAC2-mediated Rap1b-bGDP exchange (EPAC2 [4]): Dose-dependent inhibition; IC50 (EPAC2 [4]): 4.4 µM; Plasma leptin (leptin): significantly reduced; pSTAT3 Y705 level (pSTAT3 Y705): enhanced
22 | Cc1cc(C)c(Nc2ccc(Cl)c(C(F)(F)F)c2)c(C)c1 [MAY0132] |  |  |  | inhibition against EPAC1 (EPAC1 [10]): no significant inhibition; IC50 (EPAC2 [11]): 0.4 µM
23 | N#C/C(=N\Nc1cc(Cl)cc(Cl)c1)C(=O)c1ccc(Cl)cc1 [ZL0491, (E)-2-(4-chlorophenyl)-N-(3,5-dichlorophenyl)-2-oxoacetohydrazonoyl cyanide] |  | > 300 |  | 
24 | N#C/C(=N\Nc1cc(Cl)cc(Cl)c1)C(=O)c1cccc(Cl)c1 [ZL0546, (E)-2-(3-chlorophenyl)-N-(3,5-dichlorophenyl)-2-oxoacetohydrazonoyl cyanide] |  | > 300 |  | 
25 | COc1ccc(C(=O)/C(C#N)=N/Nc2cc(Cl)cc(Cl)c2)cc1OC [ZL0631, (E)-N-(3,5-dichlorophenyl)-2-(3,4-dimethoxyphenyl)-2-oxoacetohydrazonoyl cyanide] |  | > 300 |  | 

— patent US11124489B2, “EPAC antagonists” (priority 2017, dated 2021)
